Reference: patent US20240132431A1, “METHOD FOR ALKYLATING ACIDIC FUNCTIONAL GROUP” (Chugai Seiyaku Kabushiki Kaisha, priority 2021, published 2024)

Target: T1, Bcl-2 protein (Recombinant Human Bcl-2 Protein) (Homo sapiens, UniProt P10415)
T1 construct: purchased Novus NBP2-34889
Test: Binding evaluation of mixture library compounds to Bcl-2 using AS-MS (affinity selection mass spectrometry)
Summary of the method: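 ASMS Ratio (%) was calculated as (A−C)/B×100, where A is the protein sample after SEC, B the protein-free sample without SEC and C the protein-free sample after SEC. Each compound was at […] in a 1200-member pool with 20 μM Bcl-2, incubated 1 h at 23° C.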

T1 sequence (P10415 whole entry): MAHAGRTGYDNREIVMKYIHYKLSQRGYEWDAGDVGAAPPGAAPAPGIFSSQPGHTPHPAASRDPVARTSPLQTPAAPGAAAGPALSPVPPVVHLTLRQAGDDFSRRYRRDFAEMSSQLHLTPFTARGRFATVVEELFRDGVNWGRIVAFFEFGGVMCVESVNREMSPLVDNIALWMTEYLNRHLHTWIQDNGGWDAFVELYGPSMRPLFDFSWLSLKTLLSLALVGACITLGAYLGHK

Row | ASMS ratio (%) (n = 1) | ASMS ratio (%) (n = 2) | Structure (SMILES)
1 | 0.0% | 0.0% | CCOc1cncc(-c2csc(C(=O)N3CCN(c4ccc(C(=O)NS(=O)(=O)CCC(F)(F)F)nn4)CC3)c2)c1 [B2N002-01, 6-[4-[4-(5-Ethoxypyridin-3-yl)thiophene-2-carbonyl]piperazin-1-yl]-N-(3,3,3-trifluoropropylsulfonyl)pyridazine-3-carboxamide]
2 | 0.0% | 0.0% | CCOc1cccc(-c2ccc(C(=O)N3CCN(c4ccc(C(=O)NS(=O)(=O)CCC(F)(F)F)nn4)CC3)cc2C)c1 [B2N003-01, 6-[4-[4-(3-Ethoxyphenyl)-3-methylbenzoyl]piperazin-1-yl]-N-(3,3,3-trifluoropropylsulfonyl)pyridazine-3-carboxamide]
3 | 1.2% | −2.0% | CCOc1cncc(-c2ccc(C(=O)N3CCN(c4ccc(C(=O)NS(=O)(=O)CCC(F)(F)F)nn4)CC3)cc2C)c1 [B2N004-01, 6-[4-[4-(5-Ethoxypyridin-3-yl)-3-methylbenzoyl]piperazin-1-yl]-N-(3,3,3-trifluoropropylsulfonyl)pyridazine-3-carboxamide]
4 | 0.0% | 0.0% | CCOc1cccc(C#Cc2ccccc2C(=O)N2CCN(c3ccc(C(=O)NS(=O)(=O)CCC(F)(F)F)nn3)CC2)c1 [B2N007-01, 6-[4-[2-[2-(3-Ethoxyphenyl)ethynyl]benzoyl]piperazin-1-yl]-N-(3,3,3-trifluoropropylsulfonyl)pyridazine-3-carboxamide]
5 | 0.0% | −0.4% | CCOc1cncc(C#Cc2ccccc2C(=O)N2CCN(c3ccc(C(=O)NS(=O)(=O)CCC(F)(F)F)nn3)CC2)c1 [B2N008-01, 6-[4-[2-[2-(5-Ethoxypyridin-3-yl)ethynyl]benzoyl]piperazin-1-yl]-N-(3,3,3-trifluoropropylsulfonyl)pyridazine-3-carboxamide]
6 | 0.0% | −0.4% | CCOc1cccc(C#Cc2cncc(C(=O)N3CCN(c4ccc(C(=O)NS(=O)(=O)CCC(F)(F)F)nn4)CC3)c2)c1 [B2N009-01, 6-[4-[5-[2-(3-Ethoxyphenyl)ethynyl]pyridine-3-carbonyl]piperazin-1-yl]-N-(3,3,3-trifluoropropylsulfonyl)pyridazine-3-carboxamide]
7 | 0.0% | 0.0% | CCOc1cncc(C#Cc2cncc(C(=O)N3CCN(c4ccc(C(=O)NS(=O)(=O)CCC(F)(F)F)nn4)CC3)c2)c1 [B2N010-01, 6-[4-[5-[2-(5-Ethoxypyridin-3-yl)ethynyl]pyridine-3-carbonyl]piperazin-1-yl]-N-(3,3,3-trifluoropropylsulfonyl)pyridazine-3-carboxamide]
8 | 0.0% | 0.0% | CCOc1cccc(-c2ccccc2CCC(=O)N2CCN(c3ccc(C(=O)NS(=O)(=O)CCC(F)(F)F)nn3)CC2)c1 [B2N011-01, 6-[4-[3-[2-(3-Ethoxyphenyl)phenyl]propanoyl]piperazin-1-yl]-N-(3,3,3-trifluoropropylsulfonyl)pyridazine-3-carboxamide]
9 | 0.0% | 0.0% | CCOc1cncc(-c2ccccc2CCC(=O)N2CCN(c3ccc(C(=O)NS(=O)(=O)CCC(F)(F)F)nn3)CC2)c1 [B2N012-01, 6-[4-[3-[2-(5-Ethoxypyridin-3-yl)phenyl]propanoyl]piperazin-1-yl]-N-(3,3,3-trifluoropropylsulfonyl)pyridazine-3-carboxamide]
10 | 0.0% | 0.0% | CCOc1cccc(-c2ccc(C(=O)N3CCN(c4ccc(C(=O)NS(=O)(=O)CCC(F)(F)F)nn4)CC3)c3ccccc23)c1 [B2N013-01, 6-[4-[4-(3-Ethoxyphenyl)naphthalene-1-carbonyl]piperazin-1-yl]-N-(3,3,3-trifluoropropylsulfonyl)pyridazine-3-carboxamide]
11 | 0.0% | 0.0% | CCOc1cncc(-c2ccc(C(=O)N3CCN(c4ccc(C(=O)NS(=O)(=O)CCC(F)(F)F)nn4)CC3)c3ccccc23)c1 [B2N014-01, 6-[4-[4-(5-Ethoxypyridin-3-yl)naphthalene-1-carbonyl]piperazin-1-yl]-N-(3,3,3-trifluoropropylsulfonyl)pyridazine-3-carboxamide]
12 | 0.0% | 0.0% | CCOc1cncc(-c2cc(C(=O)N3CCN(c4ccc(C(=O)NS(=O)(=O)CCC(F)(F)F)nn4)CC3)cc(C(C)(C)C)c2)c1 [B2N016-01, 6-[4-[3-tert-Butyl-5-(5-ethoxypyridin-3-yl)benzoyl]piperazin-1-yl]-N-(3,3,3-trifluoropropylsulfonyl)pyridazine-3-carboxamide]
13 | 0.0% | 1.0% | CCOc1cncc(-c2cc(C(=O)N3CCN(c4ccc(C(=O)NS(=O)(=O)CCC(F)(F)F)nn4)CC3)cc(C(F)(F)F)c2)c1 [B2N018-01, 6-[4-[3-(5-Ethoxypyridin-3-yl)-5-(trifluoromethyl)benzoyl]piperazin-1-yl]-N-(3,3,3-trifluoropropylsulfonyl)pyridazine-3-carboxamide]
14 | 0.0% | 0.0% | CCOc1cncc(C#Cc2cc(C(=O)N3CCN(c4ccc(C(=O)NS(=O)(=O)CCC(F)(F)F)nn4)CC3)cc(C(F)(F)F)c2)c1 [B2N020-01, 6-[4-[3-[2-(5-Ethoxypyridin-3-yl)ethynyl]-5-(trifluoromethyl)benzoyl]piperazin-1-yl]-N-(3,3,3-trifluoropropylsulfonyl)pyridazine-3-carboxamide]
15 |  | 0.0% | CCOc1cccc(-c2cnn(-c3cc(C(=O)N4CCN(c5ccc(C(=O)NS(=O)(=O)CCC(F)(F)F)nn5)CC4)cc(C(F)(F)F)c3)c2)c1 [B2N021-01, 6-[4-[3-[4-(3-Ethoxyphenyl)pyrazol-1-yl]-5-(trifluoromethyl)benzoyl]piperazin-1-yl]-N-(3,3,3-trifluoropropylsulfonyl)pyridazine-3-carboxamide]
16 | 0.0% | 0.0% | CCOc1cncc(-c2cnn(-c3cc(C(=O)N4CCN(c5ccc(C(=O)NS(=O)(=O)CCC(F)(F)F)nn5)CC4)cc(C(F)(F)F)c3)c2)c1 [B2N022-01, 6-[4-[3-[4-(5-Ethoxypyridin-3-yl)pyrazol-1-yl]-5-(trifluoromethyl)benzoyl]piperazin-1-yl]-N-(3,3,3-trifluoropropylsulfonyl)pyridazine-3-carboxamide]
17 | 0.0% | 0.0% | CCOc1cccc(-c2csc(C(=O)N3CCN(c4ccc(C(=O)NS(=O)(=O)CCC(F)(F)F)cc4)CC3)c2)c1 [B2N023-01, 4-[4-[4-(3-Ethoxyphenyl)thiophene-2-carbonyl]piperazin-1-yl]-N-(3,3,3-trifluoropropylsulfonyl)benzamide]
18 | 0.0% | 0.0% | CCOc1cncc(-c2csc(C(=O)N3CCN(c4ccc(C(=O)NS(=O)(=O)CCC(F)(F)F)cc4)CC3)c2)c1 [B2N024-01, 4-[4-[4-(5-Ethoxypyridin-3-yl)thiophene-2-carbonyl]piperazin-1-yl]-N-(3,3,3-trifluoropropylsulfonyl)benzamide]
19 | 0.0% | 0.0% | CCOc1cccc(-c2ccc(C(=O)N3CCN(c4ccc(C(=O)NS(=O)(=O)CCC(F)(F)F)cc4)CC3)cc2C)c1 [B2N025-01, 4-[4-[4-(3-Ethoxyphenyl)-3-methylbenzoyl]piperazin-1-yl]-N-(3,3,3-trifluoropropylsulfonyl)benzamide]
20 | −1.5% | −0.7% | CCOc1cncc(-c2ccc(C(=O)N3CCN(c4ccc(C(=O)NS(=O)(=O)CCC(F)(F)F)cc4)CC3)cc2C)c1 [B2N026-01, 4-[4-[4-(5-Ethoxypyridin-3-yl)-3-methylbenzoyl]piperazin-1-yl]-N-(3,3,3-trifluoropropylsulfonyl)benzamide]
21 | −0.7% | −0.9% | CCOc1cncc(-c2ccc(C(=O)N3CCN(c4ccc(C(=O)NS(=O)(=O)CCC(F)(F)F)cc4)CC3)cc2F)c1 [B2N028-01, 4-[4-[4-(5-Ethoxypyridin-3-yl)-3-fluorobenzoyl]piperazin-1-yl]-N-(3,3,3-trifluoropropylsulfonyl)benzamide]
22 | 0.0% | 0.0% | CCOc1cncc(C#Cc2ccccc2C(=O)N2CCN(c3ccc(C(=O)NS(=O)(=O)CCC(F)(F)F)cc3)CC2)c1 [B2N030-01, 4-[4-[2-[2-(5-Ethoxypyridin-3-yl)ethynyl]benzoyl]piperazin-1-yl]-N-(3,3,3-trifluoropropylsulfonyl)benzamide]
23 | 0.0% | 0.0% | CCOc1cccc(C#Cc2cncc(C(=O)N3CCN(c4ccc(C(=O)NS(=O)(=O)CCC(F)(F)F)cc4)CC3)c2)c1 [B2N031-01, 4-[4-[5-[2-(3-Ethoxyphenyl)ethynyl]pyridine-3-carbonyl]piperazin-1-yl]-N-(3,3,3-trifluoropropylsulfonyl)benzamide]
24 | −0.4% | −1.0% | CCOc1cncc(C#Cc2cncc(C(=O)N3CCN(c4ccc(C(=O)NS(=O)(=O)CCC(F)(F)F)cc4)CC3)c2)c1 [B2N032-01, 4-[4-[5-[2-(5-Ethoxypyridin-3-yl)ethynyl]pyridine-3-carbonyl]piperazin-1-yl]-N-(3,3,3-trifluoropropylsulfonyl)benzamide]
25 | 0.0% | 0.0% | CCOc1cccc(-c2ccccc2CCC(=O)N2CCN(c3ccc(C(=O)NS(=O)(=O)CCC(F)(F)F)cc3)CC2)c1 [B2N033-01, 4-[4-[3-[2-(3-Ethoxyphenyl)phenyl]propanoyl]piperazin-1-yl]-N-(3,3,3-trifluoropropylsulfonyl)benzamide]
26 | −0.2% | 1.0% | CCOc1cncc(-c2ccccc2CCC(=O)N2CCN(c3ccc(C(=O)NS(=O)(=O)CCC(F)(F)F)cc3)CC2)c1 [B2N034-01, 4-[4-[3-[2-(5-Ethoxypyridin-3-yl)phenyl]propanoyl]piperazin-1-yl]-N-(3,3,3-trifluoropropylsulfonyl)benzamide]
